Experiments:
[1] = test system: genetically defected sperm versus healthy sperm; details: potassium concentration in the extra-cellular fluid in the same range for all salts
[2] = test system: H/H sperm; assay: Sperm motility after about 24 hours in potassium-fortified sperm extender, computer-assisted semen analyzer; assay type: cell-based, horse
Procedure: (§1) Three curves are plotted—one for motility of N/N sperm, one for N/H sperm and one for H/H sperm. […] In the tests, the sperm was kept in the particular sperm extender formula for about 24 hours. It was then diluted with standard sperm extender (with the low potassium concentration) at about an 8-to-1 ratio in a bullet tube, and its motility was measured using a computer-assisted semen analyzer. Note that the bold lines on the graph are linear extrapolations between the actual data points, which are shown in squares, triangles and diamonds, and are not accurate representations of the actual values between those data points.
As shown in the bottom-most curve in FIG. 6, as the potassium concentration increases, the motility of the H/H sperm sample drops to zero somewhere prior to 50 times the standard potassium concentration. Because all sperm in the H/H sample contain the defective sperm, we conclude that all defective sperm are immobilized at this concentration. More importantly, the sperm are permanently immobilized, as the test measured motility after the sperm sample was re-extended, restoring metabolic potassium levels.

[3] = test system: N/N sperm; assay: as above; assay type: cell-based, horse; details: for motility of the N/N sperm sample: about 24 hours, then re-extended about 8-to-1
Procedure: as §1

[4] = test system: N/H sperm; assay: as above; assay type: cell-based, horse
Procedure: as §1

[5] = 100 times the normal potassium concentration
[6] = 70 times the normal potassium concentration, extrapolated from the curve

Compound	suitable triggering event that impaired genetically defected sperm without also impairing healthy sperm [1]	impairment of defective cells [2, 5]	microscopic examination of the morphology of the sperm cells ([2]; H/H sperm after high potassium exposure)	motility of the H/H sperm sample ([2]; somewhere prior to 50 times the standard potassium concentration, about 24 hours, then re-extended about 8-to-1)	motility of the N/N sperm sample ([3]; 50 times standard potassium concentration)	motility rate for N/N sperm cells [3, 6] [%]	motility of the N/N sperm sample [3, 5] [%]	motility percentage of N/H sperm cell sample ([4]; 50 times the normal potassium concentration, about 24 hours, then re-extended about 8-to-1)	motility rate for N/H sperm cells [4, 6] [%]
[Cl-].[K+] [potassium chloride]	yielded a suitable triggering event	completely and permanently impaired	tails were permanently curled around the cell body	zero	about 85%	~60	29	about 53%	~38
potassium phosphate [reference compound]	failed to produce such a suitable outcome	–	–	–	–	–	–	–	–

From US20070238680A1, “Substance and process for preventing a genetic defect from being passed onto offspring” (priority 2006, published 2007)
